Columns and labels:
[1] = system: Staphylococcus aureus FDA 209P; experiment: MIC, serial dilution on nutrient agar; format: cell-based; conditions: FDA209P; Staphylococcus aureus FDA 209P; nutrient agar, 37°C, 18 hours; read-out: Minimum Inhibitory Concentrations
[2] = system: Escherichia coli LA290 R56; experiment: MIC, serial dilution on nutrient agar; format: cell-based; conditions: LA290R56, 18 h, read-out: Minimum Inhibitory Concentrations
[3] = system: Escherichia coli K-12 ML 1410; experiment: MIC, serial dilution on nutrient agar; format: cell-based; conditions: K12ML1410; Escherichia coli K-12 ML 1410; nutrient agar, 37°C, 18 hours; read-out: Minimum Inhibitory Concentrations
[4] = system: Pseudomonas aeruginosa A3; experiment: MIC, serial dilution on nutrient agar; format: cell-based; conditions: Pseudomonas aeruginosa A3; nutrient agar, 37°C, 18 hours; read-out: Minimum Inhibitory Concentrations
[5] = system: Pseudomonas aeruginosa 99; experiment: MIC, serial dilution on nutrient agar; format: cell-based; conditions: Pseudomonas aeruginosa 99; nutrient agar, 37°C, 18 hours; read-out: Minimum Inhibitory Concentrations
[6] = system: Klebsiella pneumoniae 22 -3038; experiment: MIC, serial dilution on nutrient agar; format: cell-based; conditions: 223038; Klebsiella pneumoniae 22 -3038; nutrient agar, 37°C, 18 hours; read-out: Minimum Inhibitory Concentrations
[7] = system: Escherichia coli K-12 ML 1629; experiment: MIC, serial dilution on nutrient agar; format: cell-based; conditions: K12ML1629; Escherichia coli K-12 ML 1629; nutrient agar, 37°C, 18 hours; read-out: Minimum Inhibitory Concentrations
[8] = system: Pseudomonas aeruginosa No.12; experiment: MIC, serial dilution on nutrient agar; format: cell-based; conditions: Pseudomonas aeruginosa No.12; nutrient agar, 37°C, 18 hours; read-out: Minimum Inhibitory Concentrations
[9] = system: Escherichia coli K-12 ML 1630; experiment: MIC, serial dilution on nutrient agar; format: cell-based; conditions: K12ML1630, 37°C, 18 hours, read-out: Minimum Inhibitory Concentrations
Description: The minimum inhibitory concentrations (mcg/ml) of 1,2'-di-N-[(S)-4-amino-2-hydroxybutyryl]-kanamycin B (abbreviated as 1,2'-AHB-KMB), 1,2'-di-N-[(S)-4-amino-2-hydroxybutyryl]-3',4'-dideoxykanamycin B (abbreviated as 1,2'-AHB-DKB), 1,2'-di-N-DL-isoseryl-3',4'-dideoxykanamycin B (abbreviated as 1,2'-IS-DKB) and 1,2'-di-N-DL-isoseryl-kanamycin B (abbreviated as 1,2'-IS-KMB) against various microorganisms were determined according to serial dilution method using nutrient agar medium at 37°C, the estimation being effected after 18 hours incubation. For comparison, the minimum inhibitory concentrations of kanamycin B (abbreviated as KMB) and 3',4'-dideoxykanamycin B (abbreviated as DKB) were also determined in the same manner as mentioned above.

[10] = system: Pseudomonas aeruginosa TI-13; experiment: MIC, serial dilution on nutrient agar; format: cell-based; conditions: TI13; Pseudomonas aeruginosa TI-13; nutrient agar, 37°C, 18 hours; read-out: Minimum Inhibitory Concentrations
[11] = system: Escherichia coli JR66/W677; experiment: MIC, serial dilution on nutrient agar; format: cell-based; conditions: Escherichia coli JR66/W677; nutrient agar, 37°C, 18 hours; read-out: Minimum Inhibitory Concentrations
[12] = system: Escherichia coli LA290 R64; experiment: MIC, serial dilution on nutrient agar; format: cell-based; conditions: LA290R64, 18 h, read-out: Minimum Inhibitory Concentrations
Escherichia coli K-12 = experiment: MIC, serial dilution on nutrient agar; format: cell-based; conditions: K12; Escherichia coli K-12; nutrient agar, 37°C, 18 hours; read-out: Minimum Inhibitory Concentrations
[13] = system: Escherichia coli LA290 R55; experiment: MIC, serial dilution on nutrient agar; format: cell-based; conditions: LA290R55, 18 h, read-out: Minimum Inhibitory Concentrations
[14] = system: Klebsiella pneumoniae PCI 602; experiment: MIC, serial dilution on nutrient agar; format: cell-based; conditions: PCI602; Klebsiella pneumoniae PCI 602; nutrient agar, 37°C, 18 hours; read-out: Minimum Inhibitory Concentrations
[15] = system: Pseudomonas aeruginosa GN315; experiment: MIC, serial dilution on nutrient agar; format: cell-based; conditions: Pseudomonas aeruginosa GN315; nutrient agar, 37°C, 18 hours; read-out: Minimum Inhibitory Concentrations
Escherichia coli NIHJ = experiment: MIC, serial dilution on nutrient agar; format: cell-based; conditions: Escherichia coli NIHJ; nutrient agar, 37°C, 18 hours; read-out: Minimum Inhibitory Concentrations
[16] = system: Mycobacterium smegmatis ATCC 607; experiment: MIC, serial dilution on nutrient agar; format: cell-based; conditions: Mycolicibacterium smegmatis, ATCC607; Mycobacterium smegmatis ATCC 607; nutrient agar, 37°C, 18 hours; read-out: Minimum Inhibitory Concentrations
Escherichia coli W677 = experiment: MIC, serial dilution on nutrient agar; format: cell-based; conditions: Escherichia coli W677; nutrient agar, 37°C, 18 hours; read-out: Minimum Inhibitory Concentrations
drug-resistant bacteria = conditions: cited from earlier work

| SMILES | MIC [1] [µg/mL] | MIC [2] [µg/mL] | MIC [3] [µg/mL] | MIC [4] [µg/mL] | MIC [5] [µg/mL] | MIC [6] [µg/mL] | MIC [7] [µg/mL] | MIC [8] [µg/mL] | MIC [9] [µg/mL] | MIC [10] [µg/mL] | MIC [11] [µg/mL] | MIC [12] [µg/mL] | MIC (Escherichia coli K-12) [µg/mL] | MIC [13] [µg/mL] | MIC [14] [µg/mL] | MIC [15] [µg/mL] | MIC (Escherichia coli NIHJ) [µg/mL] | MIC [16] [µg/mL] | MIC (Escherichia coli W677) [µg/mL] | antibacterial activity against the drug-resistant bacteria (drug-resistant bacteria) |
| --- | --- | --- | --- | --- | --- | --- | --- | --- | --- | --- | --- | --- | --- | --- | --- | --- | --- | --- | --- | --- |
| NCC(O)C(=O)N[C@@H]1CC[C@@H](CN)O[C@@H]1O[C@H]1[C@H](O)[C@@H](O[C@H]2O[C@H](CO)[C@@H](O)[C@H](N)[C@H]2O)[C@H](NC(=O)C(O)CN)C[C@@H]1N (mixture of isomers) [1,2'-IS-DKB, 1,2'-di-N-DL-isoseryl-3',4'-dideoxykanamycin B] | 1.56 | 6.25 | 6.25 | 6.25 | 50 | 12.5 | 6.25 | 25 | 6.25 | 12.5 | 12.5 | 6.25 | 6.25 | 6.25 | 3.13 | > 100 | 6.25 | 1.56 | 3.13 | – |
| NC[C@H]1O[C@H](O[C@H]2[C@H](O)[C@@H](O)[C@H](N)C[C@@H]2N)[C@H](N)C[C@@H]1O [3'-deoxyneamine] | – | – | – | – | – | – | – | – | – | – | – | – | – | – | – | – | – | – | – | improved antibacterial activity |
| NC[C@@H]1CC[C@@H](N)[C@@H](O[C@H]2[C@H](O[C@@H]3O[C@H](CO)[C@@H](O)[C@H]3O)[C@@H](O)[C@H](N)C[C@@H]2N)O1 [3',4'-dideoxyribostamycin] | – | – | – | – | – | – | – | – | – | – | – | – | – | – | – | – | – | – | – | improved antibacterial activity |
| NC[C@@H]1CC[C@@H](N)[C@@H](O[C@H]2[C@H](O)[C@@H](O)[C@H](N)C[C@@H]2N)O1 [3',4'-dideoxyneamine] | – | – | – | – | – | – | – | – | – | – | – | – | – | – | – | – | – | – | – | improved antibacterial activity |
| NCC(O)C(=O)N[C@H]1[C@@H](O[C@H]2[C@H](O)[C@@H](O[C@H]3O[C@H](CO)[C@@H](O)[C@H](N)[C@H]3O)[C@H](NC(=O)C(O)CN)C[C@@H]2N)O[C@H](CN)[C@@H](O)[C@@H]1O (mixture of isomers) [1,2'-IS-KMB, 1,2'-di-N-DL-isoseryl-kanamycin B] | 3.13 | 6.25 | 6.25 | 12.5 | 50 | 12.5 | 6.25 | 25 | 6.25 | 12.5 | 25 | 6.25 | 6.25 | 6.25 | 3.13 | > 100 | 6.25 | 1.56 | 3.13 | – |

Reference: patent US3940382A, “1,2'-Di-N-substituted kanamycin B compounds” (Zaidan Hojin Biseibutsu Kagaku Kenkyu Kai, priority 1973, dated 1976)
